# Data from PubChem BioAssay AID2060599 (Molecular Pharmacology Branch, DTP, NCI, 2025).
# Test system: 817829-284-R-J1-PDC complex spheroids, viability
# Assay: Anticancer human tumor 817829-284-R-J1-PDC patient-derived colon adenocarcinoma cell line growth inhibition [CLK]
# Settings: for IC50: curve of first compound; for viability, T/C: stronger effect = lower value
# Method in brief: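 Multi-cell-type spheroids combined patient-derived tumor cells with HUVEC endothelial cells and human mesenchymal stem cells. Paired agents were dosed in half-log steps down from about clinical Cmax, or from 10 microM where Cmax was unknown.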
# [1] = second compound 0.0316 µM, first compound 0.0316 µM
# [2] = second compound 0.0316 µM, first compound 0.1 µM
# [3] = second compound 0.0316 µM, first compound 0.316 µM
# [4] = second compound 0.0316 µM, first compound 1 µM
# [5] = second compound 0.0316 µM, first compound 3.16 µM
# [6] = second compound 0.0316 µM, first compound 10 µM
# [7] = second compound 0.1 µM, first compound 0.0316 µM
# [8] = second compound 0.1 µM, first compound 0.1 µM
# [9] = second compound 0.1 µM, first compound 0.316 µM
# [10] = second compound 0.1 µM, first compound 1 µM
# [11] = second compound 0.1 µM, first compound 3.16 µM
# [12] = second compound 0.1 µM, first compound 10 µM
# [13] = second compound 0.316 µM, first compound 0.0316 µM
# [14] = second compound 0.316 µM, first compound 0.1 µM
# [15] = second compound 0.316 µM, first compound 0.316 µM
# [16] = second compound 0.316 µM, first compound 1 µM
# [17] = second compound 0.316 µM, first compound 3.16 µM
# [18] = second compound 0.316 µM, first compound 10 µM
# [19] = second compound 1 µM, first compound 0.0316 µM
# [20] = second compound 1 µM, first compound 0.1 µM
# [21] = second compound 1 µM, first compound 0.316 µM
# [22] = second compound 1 µM, first compound 1 µM
# [23] = second compound 1 µM, first compound 3.16 µM
# [24] = second compound 1 µM, first compound 10 µM
# [25] = second compound 3.16 µM, first compound 0.0316 µM
# [26] = second compound 3.16 µM, first compound 0.1 µM
# [27] = second compound 3.16 µM, first compound 0.316 µM
# [28] = second compound 3.16 µM, first compound 1 µM
# [29] = second compound 3.16 µM, first compound 3.16 µM
# [30] = second compound 3.16 µM, first compound 10 µM
# [31] = second compound 10 µM, first compound 0.0316 µM
# [32] = second compound 10 µM, first compound 0.1 µM
# [33] = second compound 10 µM, first compound 0.316 µM
# [34] = second compound 10 µM, first compound 1 µM
# [35] = second compound 10 µM, first compound 3.16 µM
# [36] = second compound 10 µM, first compound 10 µM
# 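Also: spheroids exposed to the agents for seven days before readout.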
smiles,measurement,setting,value
CC(C)CC(NC(=O)C(Cc1ccccc1)NC(=O)c1cnccn1)B(O)O (stereo not drawn) + CNC(=O)c1ccc(Nc2nc(OC3CCCC3)c3c(-c4ccc5nc(C)oc5c4)c[nH]c3n2)c(OC)c1,IC50,second compound 0.0316 µM,< 0.949 nM
same,IC50,second compound 0.1 µM,< 0.949 nM
same,IC50,second compound 0.316 µM,< 0.949 nM
same,IC50,second compound 1 µM,< 0.949 nM
same,IC50,second compound 3.16 µM,< 0.949 nM
same,IC50,second compound 10 µM,< 0.949 nM
same,"viability, T/C","second compound 0.0316 µM, first compound 0.000949 µM",31.9%
same,"viability, T/C","second compound 0.0316 µM, first compound 0.003 µM",0.67%
same,"viability, T/C","second compound 0.0316 µM, first compound 0.00949 µM",0.14%
same,"viability, T/C","second compound 0.0316 µM, first compound 0.03 µM",0.16%
same,"viability, T/C","second compound 0.0316 µM, first compound 0.0949 µM",0.14%
same,"viability, T/C","second compound 0.0316 µM, first compound 0.3 µM",0.09%
same,"viability, T/C","second compound 0.1 µM, first compound 0.000949 µM",25%
same,"viability, T/C","second compound 0.1 µM, first compound 0.003 µM",0.93%
same,"viability, T/C","second compound 0.1 µM, first compound 0.00949 µM",0.22%
same,"viability, T/C","second compound 0.1 µM, first compound 0.03 µM",0.17%
same,"viability, T/C","second compound 0.1 µM, first compound 0.0949 µM",0.11%
same,"viability, T/C","second compound 0.1 µM, first compound 0.3 µM",0.1%
same,"viability, T/C","second compound 0.316 µM, first compound 0.000949 µM",23%
same,"viability, T/C","second compound 0.316 µM, first compound 0.003 µM",0.45%
same,"viability, T/C","second compound 0.316 µM, first compound 0.00949 µM",0.13%
same,"viability, T/C","second compound 0.316 µM, first compound 0.03 µM",0.6%
same,"viability, T/C","second compound 0.316 µM, first compound 0.0949 µM",0.08%
same,"viability, T/C","second compound 0.316 µM, first compound 0.3 µM",0.13%
same,"viability, T/C","second compound 1 µM, first compound 0.000949 µM",14.7%
same,"viability, T/C","second compound 1 µM, first compound 0.003 µM",0.18%
same,"viability, T/C","second compound 1 µM, first compound 0.00949 µM",0.14%
same,"viability, T/C","second compound 1 µM, first compound 0.03 µM",0.09%
same,"viability, T/C","second compound 1 µM, first compound 0.0949 µM",0.13%
same,"viability, T/C","second compound 1 µM, first compound 0.3 µM",0.16%
same,"viability, T/C","second compound 3.16 µM, first compound 0.000949 µM",12.5%
same,"viability, T/C","second compound 3.16 µM, first compound 0.003 µM",0.39%
same,"viability, T/C","second compound 3.16 µM, first compound 0.00949 µM",0.14%
same,"viability, T/C","second compound 3.16 µM, first compound 0.03 µM",0.1%
same,"viability, T/C","second compound 3.16 µM, first compound 0.0949 µM",0.22%
same,"viability, T/C","second compound 3.16 µM, first compound 0.3 µM",0.09%
same,"viability, T/C","second compound 10 µM, first compound 0.000949 µM",11.3%
same,"viability, T/C","second compound 10 µM, first compound 0.003 µM",0.15%
same,"viability, T/C","second compound 10 µM, first compound 0.00949 µM",0.16%
same,"viability, T/C","second compound 10 µM, first compound 0.03 µM",0.14%
same,"viability, T/C","second compound 10 µM, first compound 0.0949 µM",0.23%
same,"viability, T/C","second compound 10 µM, first compound 0.3 µM",0.11%
CC(CO)NC(=O)c1cc(-c2ccc(Cl)cc2)nn(-c2cnn(C)c2)c1=O (stereo not drawn) + CNC(=O)c1ccc(Nc2nc(OC3CCCC3)c3c(-c4ccc5nc(C)oc5c4)c[nH]c3n2)c(OC)c1,IC50,second compound 0.0316 µM,< 31.6 nM
same,IC50,second compound 0.1 µM,< 31.6 nM
same,IC50,second compound 0.316 µM,< 31.6 nM
same,IC50,second compound 1 µM,< 31.6 nM
same,IC50,second compound 3.16 µM,< 31.6 nM
same,IC50,second compound 10 µM,< 31.6 nM
same,"viability, T/C",[1],38.7%
same,"viability, T/C",[2],34.8%
same,"viability, T/C",[3],32.9%
same,"viability, T/C",[4],31%
same,"viability, T/C",[5],28.5%
same,"viability, T/C",[6],23.4%
same,"viability, T/C",[7],24.2%
same,"viability, T/C",[8],23.8%
same,"viability, T/C",[9],27.7%
same,"viability, T/C",[10],21.3%
same,"viability, T/C",[11],39.8%
same,"viability, T/C",[12],21.4%
same,"viability, T/C",[13],27.4%
same,"viability, T/C",[14],29.7%
same,"viability, T/C",[15],24.1%
same,"viability, T/C",[16],24.7%
same,"viability, T/C",[17],16.1%
same,"viability, T/C",[18],19.2%
same,"viability, T/C",[19],14.1%
same,"viability, T/C",[20],36.8%
same,"viability, T/C",[21],16%
same,"viability, T/C",[22],16.2%
same,"viability, T/C",[23],15.8%
same,"viability, T/C",[24],10.7%
same,"viability, T/C",[25],22.3%
same,"viability, T/C",[26],20.2%
same,"viability, T/C",[27],18.7%
same,"viability, T/C",[28],17.9%
same,"viability, T/C",[29],18.6%
same,"viability, T/C",[30],19.4%
same,"viability, T/C",[31],24.3%
same,"viability, T/C",[32],16.7%
same,"viability, T/C",[33],41.6%
same,"viability, T/C",[34],18.7%
same,"viability, T/C",[35],14.1%
same,"viability, T/C",[36],16.8%
CC(Nc1ccc2c(c1)OCCn1cc(N3C(=O)OCC3C(F)F)nc1-2)C(N)=O (stereo not drawn) + CNC(=O)c1ccc(Nc2nc(OC3CCCC3)c3c(-c4ccc5nc(C)oc5c4)c[nH]c3n2)c(OC)c1,IC50,second compound 0.0316 µM,< 31.6 nM
same,IC50,second compound 0.1 µM,< 31.6 nM
same,IC50,second compound 0.316 µM,< 31.6 nM
same,IC50,second compound 1 µM,< 31.6 nM
same,IC50,second compound 3.16 µM,< 31.6 nM
same,IC50,second compound 10 µM,< 31.6 nM
same,"viability, T/C",[1],40%
same,"viability, T/C",[2],32.3%
same,"viability, T/C",[3],42.4%
same,"viability, T/C",[4],48.6%
same,"viability, T/C",[5],29.8%
same,"viability, T/C",[6],20.4%
same,"viability, T/C",[7],20.4%
same,"viability, T/C",[8],26.4%
same,"viability, T/C",[9],20.2%
same,"viability, T/C",[10],20%
same,"viability, T/C",[11],33.4%
same,"viability, T/C",[12],15.1%
same,"viability, T/C",[13],37.9%
same,"viability, T/C",[14],19.6%
same,"viability, T/C",[15],19.9%
same,"viability, T/C",[16],21.6%
same,"viability, T/C",[17],18.5%
same,"viability, T/C",[18],15.5%
same,"viability, T/C",[19],23.4%
same,"viability, T/C",[20],20.8%
same,"viability, T/C",[21],16.7%
same,"viability, T/C",[22],17.6%
same,"viability, T/C",[23],16.1%
same,"viability, T/C",[24],15.3%
same,"viability, T/C",[25],22.2%
same,"viability, T/C",[26],18.8%
same,"viability, T/C",[27],16.5%
same,"viability, T/C",[28],18.6%
same,"viability, T/C",[29],13.1%
same,"viability, T/C",[30],13.6%
same,"viability, T/C",[31],15.1%
same,"viability, T/C",[32],16.6%
same,"viability, T/C",[33],14%
same,"viability, T/C",[34],18.2%
same,"viability, T/C",[35],16.8%
same,"viability, T/C",[36],9.33%
COc1c(OCCCN2CCOCC2)ccc2c3n(c(=NC(=O)c4cnc(N)nc4)nc12)CCN3 + CNC(=O)c1ccc(Nc2nc(OC3CCCC3)c3c(-c4ccc5nc(C)oc5c4)c[nH]c3n2)c(OC)c1,IC50,second compound 0.0316 µM,33.8 nM
same,IC50,second compound 0.1 µM,< 3.16 nM
same,IC50,second compound 0.316 µM,< 3.16 nM
same,IC50,second compound 1 µM,< 3.16 nM
same,IC50,second compound 3.16 µM,< 3.16 nM
same,IC50,second compound 10 µM,< 3.16 nM
same,"viability, T/C","second compound 0.0316 µM, first compound 0.00316 µM",39.8%
same,"viability, T/C","second compound 0.0316 µM, first compound 0.01 µM",41.3%
same,"viability, T/C",[1],74.9%
same,"viability, T/C",[2],19.1%
same,"viability, T/C",[3],4.03%
same,"viability, T/C",[4],1.87%
same,"viability, T/C","second compound 0.1 µM, first compound 0.00316 µM",24%
same,"viability, T/C","second compound 0.1 µM, first compound 0.01 µM",21%
same,"viability, T/C",[7],15.8%
same,"viability, T/C",[8],9.46%
same,"viability, T/C",[9],3.69%
same,"viability, T/C",[10],1.76%
same,"viability, T/C","second compound 0.316 µM, first compound 0.00316 µM",20.6%
same,"viability, T/C","second compound 0.316 µM, first compound 0.01 µM",22%
same,"viability, T/C",[13],18.4%
same,"viability, T/C",[14],9.72%
same,"viability, T/C",[15],3.22%
same,"viability, T/C",[16],2.08%
same,"viability, T/C","second compound 1 µM, first compound 0.00316 µM",31.5%
same,"viability, T/C","second compound 1 µM, first compound 0.01 µM",20.5%
same,"viability, T/C",[19],11.6%
same,"viability, T/C",[20],9.58%
same,"viability, T/C",[21],2.07%
same,"viability, T/C",[22],1.92%
same,"viability, T/C","second compound 3.16 µM, first compound 0.00316 µM",26.7%
same,"viability, T/C","second compound 3.16 µM, first compound 0.01 µM",24%
same,"viability, T/C",[25],11.9%
same,"viability, T/C",[26],5.77%
same,"viability, T/C",[27],2.1%
same,"viability, T/C",[28],1.82%
same,"viability, T/C","second compound 10 µM, first compound 0.00316 µM",19.7%
same,"viability, T/C","second compound 10 µM, first compound 0.01 µM",16%
same,"viability, T/C",[31],19.1%
same,"viability, T/C",[32],6.5%
same,"viability, T/C",[33],6.46%
same,"viability, T/C",[34],1.67%
